Results: paper PMC8778818, “Synthesis, Structural Characterization and Anticancer Activity of New 5-Trifluoromethyl-2-thioxo-thiazolo[4,5-d]pyrimidine Derivatives” (Pharmaceuticals, 2022)

Experiments:
UO-31 = experiment: NCI-60 screen, Renal Cancer UO-31; assay type: cell-based; details: for Growth of Cells (%): UO-31, 10^−5 M one dose
UACC-62 = experiment: NCI-60 screen, Melanoma UACC-62; assay type: cell-based, human; details: UACC-62, 10^−5 M one dose
HS 578T = experiment: NCI-60 screen, Breast Cancer HS 578T; assay type: cell-based, human; details: for Growth of Cells (%): 10^−5 M one dose
UACC-257 = experiment: NCI-60 screen, Melanoma UACC-257; assay type: cell-based; details: for Growth of Cells (%): UACC-257, 10^−5 M one dose
HCT-116 = experiment: NCI-60 screen, Colon Cancer HCT-116; assay type: cell-based, human; details: for Growth of Cells (%): HCT-116, 10^−5 M one dose
MCF7 = experiment: NCI-60 screen, Breast Cancer MCF7; assay type: cell-based, human; details: for Growth of Cells (%): MCF7, 10^−5 M one dose
HOP-92 = experiment: NCI-60 screen, Non-Small Cell Lung Cancer HOP-92; assay type: cell-based, human; details: for Growth of Cells (%): HOP-92, 10^−5 M one dose
MDA-MB-435 = experiment: NCI-60 screen, Melanoma MDA-MB-435; assay type: cell-based, human; details: for Growth of Cells (%): MDA-MB-435, 10^−5 M one dose
Procedure: The search for the cytotoxic activity of new derivatives usually starts with in vitro cell-based screening. Four compounds 2b (NSC D-745983/1), 3b (NSC D-766111/1), 4b (NSC D-785591/1) and 4c (NSC D-771706/1), selected by the National Cancer Institute were tested in the anticancer screen for a panel of approximately 60 human disease-oriented tumor cell lines, organized into subpanels derived from nine human cancer types—leukemia, melanoma, and cancers of the lung, colon, brain, breast, ovary, prostate, and kidney. They were initially tested at only one concentration of 10 µM (10^−5 M) for each cell line, which were inoculated and preincubated on a microtiter plate for […]. The results of the one-dose anticancer assay for the tested new compounds are reported as the percentage of the treated cell growth in comparison with untreated no-drug control. This allows for detection of the growth inhibition—values 0–100 and cytotoxicity; negative numbers mean cell death.
Antitumor activity in five dose testing (10^−4−10^−8 M) is expressed by three different dose–response parameters for each of the 60 human tumor cell lines. The GI50 value (molar concentration causing a half-growth inhibition), TGI (molar concentration required for total growth inhibition), which signifies the cytostatic effect, and LC50 (molar concentration of the compound required for 50% cell death). LC50 signifies the cytotoxic effect. […] Nevertheless, the selectivity for GI50 can be seen for several cell lines within subpanel leukemia (SR, log GI50 −6.36) and non-small cell lung cancer (NCI-H522, log GI50 −6.69).
The antitumor screening (NCI-60) was performed at the National Cancer Institute, Bethesda, USA. A total panel of approximately 60 human tumor cell lines derived from nine different cancer types (leukemia, non-small cell lung, colon, brain, melanoma, ovarian, renal, prostate and breast) formed the basis of this in vitro test. The origins and processing of the cell lines used in the study were described previously. First, the compounds were evaluated in a primary anticancer assay at 10^−5 M. Results for each tested compound are reported as the percent of growth of the treated cells. […] The human tumor cell lines of the cancer screening panel were grown in an RMPI 1640 medium containing 5% fetal bovine serum and 2 mM of L-glutamine. Each cell line was inoculated and preincubated at 37 °C, 5% CO2, 95% air and 100% relative humidity for 24 h, before the addition of the test compound into 96-well microtiter plates in 100 µL at plating densities ranging from 5000 to 40,000 cells/well. The density of inoculum depends on the type of tumor cell and its growth characteristics. The screened compounds were solubilized in dimethyl sulfoxide at 400-fold the desired final concentration and stored frozen. At the time of the test agents’ addition, an aliquot of frozen concentrate was thawed and diluted to twice the desired final concentration with complete medium containing 50 µg/mL gentamicin. Next, the test compounds were evaluated at the four additional 10-fold dilutions to reach the final concentrations plus control. Aliquots of 100 µL of the different dilutions (100, 10, 1, […] µM/mL) of the tested compounds were added to microtiter wells, and the culture was incubated for 48 h under the same conditions. Cell were fixed in situ by the addition of 50 µL of cold 50% trichloroacetic acid and incubated for 60 min at 4 °C. The supernatant was discarded; plates were washed five times with water and air-dried. Sulforhodamine B at 0.4% in 1% acetic acid, 100 µL, was added to each well, then plates were incubated for 10 min at room temperature. Unbound dye was removed by washing five times with 1% acetic acid and air dried. The protein-bound stain was solubilized with a […] trizma base and the absorbance was read on an automated plate reader. A wavelength of 515 nm was used to read optical densities. […]

T-47D = experiment: NCI-60 screen, Breast Cancer T-47D; assay type: cell-based; details: for Growth of Cells (%): 10^−5 M one dose
[1] = Homo sapiens, HOP-92, five doses 10^−4–10^−8 M

O=c1[nH]c(C(F)(F)F)nc2c1sc(=S)n2-c1ccccc1 [Compound 2b, 3-phenyl-2-thioxo-5-(trifluoromethyl)-2,3-dihydro[1, 3]thiazolo[4,5-d]pyrimidin-7(6H)-one]
Growth of Cells (%) (UO-31): 91.22% | Growth of Cells (%) (UACC-62): 109.52% | Growth of Cells (%) (HS 578T): 65.01% | Growth of Cells (%) (UACC-257): 107.08% | Growth of Cells (%) (HCT-116): 102.27% | Growth of Cells (%) (MCF7): 111.19% | Growth of Cells (%) (HOP-92): 97.54% | Growth of Cells (%) (MDA-MB-435): 114.64% | Growth of Cells (%) (T-47D; T-47D): 108.41%

FC(F)(F)c1nc(Cl)c2sc(=S)n(-c3ccccc3)c2n1 [Compound 3b, 7-chloro-3-phenyl-5-(trifluoromethyl)[1, 3]thiazolo[4,5-d]pyrimidine-2(3H)-thione]
GI50 (UO-31; Homo sapiens, UO-31, read-out: log GI50 (converted)): 1.7 µM | CC50 (UO-31; Homo sapiens, UO-31, five doses 10^−4–10^−8 M, read-out: log LC50 (the source's name) (converted)): 6.03 µM | Growth of Cells (%) (UO-31): −82.97% | log TGI (UO-31; UO-31, five doses 10^−4–10^−8 M): −5.49 log M | Growth of Cells (%) (UACC-62): 79.14% | Growth of Cells (%) (HS 578T): 21.84% | GI50 (HS 578T; Homo sapiens, five doses 10^−4–10^−8 M): 2.82 µM | CC50 (HS 578T; Homo sapiens, five doses 10^−4–10^−8 M, read-out: log LC50 (the source's name) (converted)): > 100 µM | log TGI (HS 578T; five doses 10^−4–10^−8 M): −5.07 log M | GI50 (UACC-257; Homo sapiens, UACC-257, five doses 10^−4–10^−8 M): 1.74 µM | CC50 (UACC-257; Homo sapiens, UACC-257, five doses 10^−4–10^−8 M, read-out: log LC50 (the source's name) (converted)): 7.94 µM | Growth of Cells (%) (UACC-257): 19.38% | log TGI (UACC-257; UACC-257, five doses 10^−4–10^−8 M): −5.43 log M | Growth of Cells (%) (HCT-116): −27.21% | log TGI (HCT-116; HCT-116, five doses 10^−4–10^−8 M): −5.47 log M | GI50 (HCT-116; Homo sapiens, HCT-116, five doses 10^−4–10^−8 M): 1.74 µM | CC50 (HCT-116; Homo sapiens, HCT-116, five doses 10^−4–10^−8 M, read-out: log LC50 (the source's name) (converted)): 6.61 µM | GI50 (MCF7; Homo sapiens, MCF7, five doses 10^−4–10^−8 M): 2.24 µM | CC50 (MCF7; Homo sapiens, MCF7, five doses 10^−4–10^−8 M, read-out: log LC50 (the source's name) (converted)): 57.5 µM | Growth of Cells (%) (MCF7): 22.84% | log TGI (MCF7; MCF7, five doses 10^−4–10^−8 M): −5.25 log M | Growth of Cells (%) (HOP-92): −21.23% | log TGI (HOP-92; HOP-92, five doses 10^−4–10^−8 M): −5.56 log M | GI50 (HOP-92; [1]): 1.26 µM | LC50 (HOP-92; [1]): 5.89 µM | GI50 (MDA-MB-435; Homo sapiens, MDA-MB-435, five doses 10^−4–10^−8 M): 1.86 µM | CC50 (MDA-MB-435; Homo sapiens, MDA-MB-435, five doses 10^−4–10^−8 M, read-out: log LC50 (the source's name) (converted)): 7.41 µM | Growth of Cells (%) (MDA-MB-435): 6.26% | log TGI (MDA-MB-435; MDA-MB-435, five doses 10^−4–10^−8 M): −5.43 log M | GI50 (T-47D; Homo sapiens, T47D, read-out: log GI50 (converted)): 1.86 µM | CC50 (T-47D; Homo sapiens, T47D, T-47D, five doses 10^−4–10^−8 M, read-out: log LC50 (the source's name) (converted)): 66.1 µM | Growth of Cells (%) (T-47D; T-47D): −35.57% | log TGI (T-47D; T-47D, five doses 10^−4–10^−8 M): −5.32 log M

CCNc1nc(C(F)(F)F)nc2c1sc(=S)n2-c1ccccc1 [Compound 4b, 7-(ethylamino)-3-phenyl-5-(trifluoromethyl)[1, 3]thiazolo[4,5-d]pyrimidine-2(3H)-thione]
Growth of Cells (%) (UO-31): 103.75% | Growth of Cells (%) (UACC-62): 93.86% | Growth of Cells (%) (HS 578T): 106.83% | Growth of Cells (%) (UACC-257): 98.66% | Growth of Cells (%) (HCT-116): 94.34% | Growth of Cells (%) (MCF7): 96.38% | Growth of Cells (%) (MDA-MB-435): 112.84% | Growth of Cells (%) (T-47D; T-47D): 73.92%

Fc1ccc(CNc2nc(C(F)(F)F)nc3c2sc(=S)n3-c2ccccc2)cc1 [Compound 4c]
Growth of Cells (%) (UO-31): 82.87% | Growth of Cells (%) (UACC-62): 105.93% | Growth of Cells (%) (HS 578T): 125.43% | Growth of Cells (%) (UACC-257): 96.72% | Growth of Cells (%) (HCT-116): 111.01% | Growth of Cells (%) (MCF7): 98.77% | Growth of Cells (%) (HOP-92): 106.96% | Growth of Cells (%) (MDA-MB-435): 102.86% | Growth of Cells (%) (T-47D; T-47D): 85.37%
